# Test results taken from ChEMBL document CHEMBL3745711, “Discovery of potent and orally bioavailable inhibitors of Human Uric Acid Transporter 1 (hURAT1) and binding mode prediction using homology model” (Bioorg Med Chem Lett, 2016).
# Columns and labels:
# [1] = molecular target: T1, Solute carrier family 22 member 12 (Homo sapiens, UniProt Q96S37); assay: Inhibition of human URAT1 expressed in HEK293 cells assessed as [14C]uric acid uptake after 12 mins by scintillation counter; assay type: cell-based
# T1 sequence (Q96S37 whole entry): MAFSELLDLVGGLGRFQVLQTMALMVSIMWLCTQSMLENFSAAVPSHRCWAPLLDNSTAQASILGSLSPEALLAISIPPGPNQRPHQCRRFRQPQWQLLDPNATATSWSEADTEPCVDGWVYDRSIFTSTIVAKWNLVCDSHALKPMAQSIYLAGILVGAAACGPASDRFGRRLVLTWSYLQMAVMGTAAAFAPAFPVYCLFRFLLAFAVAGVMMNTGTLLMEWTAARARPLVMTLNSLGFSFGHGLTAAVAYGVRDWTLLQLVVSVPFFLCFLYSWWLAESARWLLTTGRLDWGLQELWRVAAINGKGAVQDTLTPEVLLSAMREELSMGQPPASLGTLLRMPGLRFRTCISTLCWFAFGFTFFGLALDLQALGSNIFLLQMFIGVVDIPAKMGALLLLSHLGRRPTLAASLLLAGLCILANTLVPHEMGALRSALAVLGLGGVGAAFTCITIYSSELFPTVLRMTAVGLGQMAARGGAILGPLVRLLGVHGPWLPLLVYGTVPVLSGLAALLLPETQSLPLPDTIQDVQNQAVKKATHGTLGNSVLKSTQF
# [2] = Tmax in Sprague-Dawley rat at 3 mg/kg, po by LC-MS/MS analysis; assay type: ADME, organism-based; conditions: in vivo
# [3] = Mean residence time in Sprague-Dawley rat at 3 mg/kg, po by LC-MS/MS analysis; assay type: ADME, organism-based; conditions: in vivo
# [4] = Intrinsic clearance in monkey liver microsomes; assay type: ADME, Macaca mulatta; conditions: rhesus monkey, read-out: CLH
# [5] = Bioavailability in beagle dog at 1 mg/kg, iv by LC-MS/MS analysis; assay type: ADME, organism-based, Canis lupus familiaris; conditions: in vivo
# [6] = Tmax in beagle dog at 5 mg/kg, po by LC-MS/MS analysis; assay type: ADME, organism-based, Canis lupus familiaris; conditions: in vivo
# [7] = Clearance in Sprague-Dawley rat at 3 mg/kg, iv by LC-MS/MS analysis; assay type: ADME, organism-based; conditions: in vivo
# [8] = Apparent volume of distribution in Sprague-Dawley rat at 3 mg/kg, po by LC-MS/MS analysis; assay type: ADME, organism-based; conditions: in vivo, read-out: Vz/F
# [9] = Plasma protein binding in human; assay type: ADME, cell-free; conditions: read-out: PPB (converted)
# [10] = Tmax in cynomolgus monkey at 10 mg/kg, po by LC-MS/MS analysis; assay type: ADME, organism-based, Macaca fascicularis; conditions: in vivo
# [11] = Mean residence time in Sprague-Dawley rat at 3 mg/kg, iv by LC-MS/MS analysis; assay type: ADME, organism-based; conditions: in vivo
# [12] = Mean residence time in cynomolgus monkey at 10 mg/kg, po by LC-MS/MS analysis; assay type: ADME, organism-based, Macaca fascicularis; conditions: in vivo
# [13] = Cmax in Sprague-Dawley rat at 3 mg/kg, iv by LC-MS/MS analysis; assay type: ADME, organism-based; design: dose 3 mg/kg, route intravenous; conditions: in vivo
# Cynomolgus monkey = assay: Decrease in uric acid level in cynomolgus monkey serum administered as single oral dose measured after 24 hrs; assay type: functional, organism-based; conditions: Macaca fascicularis
# [14] = Half life in Sprague-Dawley rat at 3 mg/kg, po by LC-MS/MS analysis; assay type: ADME, organism-based; conditions: in vivo
# [15] = AUC (0 to t) in Sprague-Dawley rat at 3 mg/kg, po by LC-MS/MS analysis; assay type: ADME, organism-based; conditions: in vivo
# [16] = Cmax in cynomolgus monkey at 10 mg/kg, po by LC-MS/MS analysis; assay type: ADME, organism-based, Macaca fascicularis; design: dose 10 mg/kg, route oral; conditions: in vivo
# [17] = Cmax in Sprague-Dawley rat at 3 mg/kg, po by LC-MS/MS analysis; assay type: ADME, organism-based; design: dose 3 mg/kg, route oral; conditions: in vivo
# Canis familiaris [18] = assay: Half life in beagle dog at 1 mg/kg, iv by LC-MS/MS analysis; assay type: ADME, organism-based, Canis lupus familiaris; conditions: in vivo
# [19] = Half life in human liver microsomes; assay type: ADME
# [20] = AUC (0 to t) in Sprague-Dawley rat at 3 mg/kg, iv by LC-MS/MS analysis; assay type: ADME, organism-based; conditions: in vivo
# Rattus norvegicus [21] = assay: Apparent volume of distribution in Sprague-Dawley rat at 3 mg/kg, iv by LC-MS/MS analysis; assay type: ADME, organism-based; conditions: in vivo
# [22] = Half life in cynomolgus monkey at 10 mg/kg, po by LC-MS/MS analysis; assay type: ADME, organism-based, Macaca fascicularis; conditions: in vivo
# Rattus norvegicus [23] = assay: Toxicity in Sprague-Dawley rat assessed as no adverse effect at 100 mg/kg once daily for 1 week; assay type: organism-based; conditions: in vivo, 168 h
# Canis familiaris [24] = assay: Half life in beagle dog at 5 mg/kg, po by LC-MS/MS analysis; assay type: ADME, organism-based, Canis lupus familiaris; conditions: in vivo
# [25] = Toxicity in Sprague-Dawley rat administered once daily for 1 week; assay type: organism-based; conditions: in vivo
# Canis familiaris [26] = assay: AUC (0 to t) in beagle dog at 1 mg/kg, iv by LC-MS/MS analysis; assay type: ADME, organism-based, Canis lupus familiaris; conditions: in vivo
# [27] = Intrinsic clearance in rat liver microsomes; assay type: ADME; conditions: read-out: CLH
# [28] = Apparent volume of distribution in cynomolgus monkey at 10 mg/kg, po by LC-MS/MS analysis; assay type: ADME, organism-based, Macaca fascicularis; conditions: in vivo, read-out: Vz/F
# [29] = Cmax in beagle dog at 1 mg/kg, iv by LC-MS/MS analysis; assay type: ADME, organism-based, Canis lupus familiaris; design: dose 1 mg/kg, route intravenous; conditions: in vivo
# [30] = Half life in rat liver microsomes; assay type: ADME
# Canis familiaris [31] = assay: Apparent volume of distribution in beagle dog at 1 mg/kg, iv by LC-MS/MS analysis; assay type: ADME, organism-based, Canis lupus familiaris; conditions: in vivo
# [32] = Half life in Sprague-Dawley rat at 3 mg/kg, iv by LC-MS/MS analysis; assay type: ADME, organism-based; conditions: in vivo
# [33] = Half life in monkey liver microsomes; assay type: ADME, Macaca mulatta; conditions: rhesus monkey
# [34] = AUC (0 to t) in cynomolgus monkey at 10 mg/kg, po by LC-MS/MS analysis; assay type: ADME, organism-based, Macaca fascicularis; conditions: in vivo
# [35] = Clearance in cynomolgus monkey at 10 mg/kg, po by LC-MS/MS analysis; assay type: ADME, organism-based, Macaca fascicularis; conditions: in vivo
# [36] = Mean residence time in beagle dog at 1 mg/kg, iv by LC-MS/MS analysis; assay type: ADME, organism-based, Canis lupus familiaris; conditions: in vivo
# [37] = Cmax in beagle dog at 5 mg/kg, po by LC-MS/MS analysis; assay type: ADME, organism-based, Canis lupus familiaris; design: dose 5 mg/kg, route oral; conditions: in vivo
# [38] = Bioavailability in Sprague-Dawley rat at 3 mg/kg, iv by LC-MS/MS analysis; assay type: ADME, organism-based; conditions: in vivo
# [39] = Mean residence time in beagle dog at 5 mg/kg, po by LC-MS/MS analysis; assay type: ADME, organism-based, Canis lupus familiaris; conditions: in vivo
# Canis familiaris [40] = assay: AUC (0 to t) in beagle dog at 5 mg/kg, po by LC-MS/MS analysis; assay type: ADME, organism-based, Canis lupus familiaris; conditions: in vivo
# [41] = Clearance in Sprague-Dawley rat at 3 mg/kg, po by LC-MS/MS analysis; assay type: ADME, organism-based; conditions: in vivo
# [42] = Intrinsic clearance in human liver microsomes; assay type: ADME; conditions: read-out: CLH
# Canis familiaris [43] = assay: Apparent volume of distribution in beagle dog at 5 mg/kg, po by LC-MS/MS analysis; assay type: ADME, organism-based, Canis lupus familiaris; conditions: in vivo
compound,measurement,setting,value
O=C(O)C1(Sc2ccnc3ccc(-c4cccc(F)c4)cc23)CCC1,IC50,[1],1190 nM
O=C(Nc1ccc2nccc(SC3(C(=O)O)CCC3)c2c1)C1CC1,IC50,[1],> 10000 nM
O=C(O)C1(Sc2ccnc3cccnc23)CCC1,IC50,[1],> 10000 nM
O=C(O)C1(Sc2ccnc3ccc(-c4ccc(C(F)(F)F)cc4)cc23)CCC1,IC50,[1],1750 nM
O=C(O)C1(Oc2ncnc3ccccc23)CCC1,IC50,[1],> 10000 nM
N#CCCc1ccc2nccc(SC3(C(=O)O)CCC3)c2c1,IC50,[1],2760 nM
O=C(O)C1(Sc2ccnc3ccc(Br)cc23)CCCC1,IC50,[1],324 nM
O=C(O)C1(Sc2ccnc3ccc(CO)cc23)CCC1,IC50,[1],1260 nM
Nc1ccc2nccc(SC3(C(=O)O)CCC3)c2c1,IC50,[1],1790 nM
O=C(O)C1(Sc2ccnc3ccc(Br)cc23)CCC1 [SHR-4640],Tmax,[2],1.2 h
same,MRT,[3],6.8 h
same,microsomal CLint,[4],2.6 µL/min/mg
same,bioavailability,[5],86.1%
same,Tmax,[6],0.5 h
same,IC50,[1],33.7 nM
same,clearance,[7],0.29 mL/min/kg
same,Vd/F,[8],0.14 L/kg
same,fraction unbound,[9],0.013
same,Tmax,[10],0.5 h
same,MRT,[11],6 h
same,MRT,[12],6.3 h
same,Cmax,[13],99700 ng/mL
same,inhibition,Cynomolgus monkey,Dose-dependent effect
same,half-life,[14],4.4 h
same,AUC(0-t),[15],146000 ng·h/mL
same,Cmax,[16],46900 ng/mL
same,Cmax,[17],20500 ng/mL
same,t1/2,Canis familiaris [18],4.7 h
same,half-life,[19],13.6 h
same,AUC(0-t),[20],193000 ng·h/mL
same,Vz/F,Rattus norvegicus [21],0.12 L/kg
same,half-life,[22],7.3 h
same,Activity,Rattus norvegicus [23],Non-toxic
same,t1/2,Canis familiaris [24],5.2 h
same,MTD at 168 h,[25],300 mg/kg
same,AUCt,Canis familiaris [26],4400 ng·h/mL
same,microsomal CLint,[27],4.4 µL/min/mg
same,Vd/F,[28],0.8 L/kg
same,Cmax,[29],4700 ng/mL
same,half-life,[30],3.28 h
same,Vz/F,Canis familiaris [31],1.6 L/kg
same,half-life,[32],4.9 h
same,half-life,[33],5.8 h
same,AUC(0-t),[34],132000 ng·h/mL
same,CL/F,[35],1.3 mL/min/kg
same,MRT,[36],3.2 h
same,Cmax,[37],7700 ng/mL
same,bioavailability,[38],74.8%
same,MRT,[39],5 h
same,AUCt,Canis familiaris [40],18600 ng·h/mL
same,CL/F,[41],0.39 mL/min/kg
same,microsomal CLint,[42],1.1 µL/min/mg
same,Vz/F,Canis familiaris [43],2.1 L/kg
O=C(O)C1(Sc2ccnc3ccc(OCCO)cc23)CCC1,IC50,[1],1890 nM
O=C(O)C1(Sc2ccnc3ccc(C(F)(F)F)cc23)CCC1,Tmax,[2],1 h
same,microsomal CLint,[4],4.9 µL/min/mg
same,Vd/F,[8],1.2 L/kg
same,fraction unbound,[9],0.001
same,half-life,[14],8.8 h
same,AUC(0-t),[15],38200 ng·h/mL
same,Cmax,[17],2700 ng/mL
same,half-life,[19],4.62 h
same,microsomal CLint,[27],4.7 µL/min/mg
same,half-life,[30],3.08 h
same,half-life,[33],3.15 h
same,CL/F,[41],2 mL/min/kg
same,microsomal CLint,[42],3.3 µL/min/mg
O=C1COc2cccc(SC3(C(=O)O)CCC3)c2N1,IC50,[1],> 10000 nM
O=C(O)C1(Sc2ccnc3ccncc23)CCC1,IC50,[1],1930 nM
O=C(O)C1(Sc2ccnc3ccc(O)cc23)CCC1,IC50,[1],> 10000 nM
CC(=O)Nc1ccc2nccc(SC3(C(=O)O)CCC3)c2c1,IC50,[1],> 10000 nM
O=C(O)C1(Sc2ncnc3ccccc23)CCC1,IC50,[1],> 10000 nM
O=C(O)C1(Sc2ccnc3ccc(-c4ccccc4F)cc23)CCC1,IC50,[1],333 nM
O=C(O)C1(Sc2ccnc3ccccc23)CCC1,Tmax,[2],0.5 h
same,MRT,[3],3.2 h
same,microsomal CLint,[4],3 µL/min/mg
same,IC50,[1],448 nM
same,Vd/F,[8],0.69 L/kg
same,fraction unbound,[9],0.002
same,half-life,[14],2.8 h
same,AUC(0-t),[15],20700 ng·h/mL
same,Cmax,[17],8800 ng/mL
same,half-life,[19],2.02 h
same,microsomal CLint,[27],2.1 µL/min/mg
same,half-life,[30],6.88 h
same,half-life,[33],4.82 h
same,CL/F,[41],2.5 mL/min/kg
same,microsomal CLint,[42],7.2 µL/min/mg
O=C(O)C1(Sc2nccc3ncccc23)CCC1,IC50,[1],> 10000 nM
CNC(=O)COc1ccc2nccc(SC3(C(=O)O)CCC3)c2c1,IC50,[1],> 10000 nM
O=C(O)C1(Sc2ccnc3ccc(Br)cc23)CC1,IC50,[1],352 nM
